Experimental data reported in ChEMBL document CHEMBL3885881, “DrugMatrix”.

Species: Rattus norvegicus
Experiment: DrugMatrix - Regimen: Daily Repeat
Format: toxicity, organism-based, Sprague-Dawley
Design: regimen Daily Repeat, gender Male, age 6-8 weeks
Conditions: in vivo, po, route oral GAVAGE, […]; for ABSOLUTE BASOPHIL / ABSOLUTE EOSINOPHIL / ABSOLUTE LYMPHOCYTE / ABSOLUTE MONOCYTE / ABSOLUTE SEGMENTED NEUTROPHIL / BASOPHIL / EOSINOPHIL / ERYTHROCYTE COUNT / HEMATOCRIT / HEMOGLOBIN / LEUKOCYTE COUNT / LYMPHOCYTE / MEAN CORPUSCULAR HEMOGLOBIN / MEAN CORPUSCULAR HEMOGLOBIN CONCENTRATION / MEAN CORPUSCULAR VOLUME / MONOCYTE / NEUTROPHIL / NUCLEATED RED BLOOD CELLS / PLATELET COUNT: tissue Blood; for ALANINE AMINOTRANSFERASE / ALBUMIN / ALKALINE PHOSPHATASE / ASPARTATE AMINOTRANSFERASE / BLOOD UREA NITROGEN / CARBON DIOXIDE / CHLORIDE / CHOLESTEROL / CREATINE PHOSPHOKINASE / CREATININE / GLUCOSE / LACTATE DEHYDROGENASE / LIPASE / PHOSPHORUS / SODIUM / TOTAL BILIRUBIN / TOTAL PROTEIN / URIC ACID: tissue Plasma
[1] = 450 mg/kg, 120 h, dose level Low, time 5 day
[2] = 1500 mg/kg, 72 h, dose level High, time 3 day
[3] = 1500 mg/kg, 120 h, dose level High, time 5 day

SMILES: CC[C@H](C)C(=O)O[C@H]1C[C@@H](C)C=C2C=C[C@H](C)[C@H](CC[C@@H]3C[C@@H](O)CC(=O)O3)[C@H]21 [LOVASTATIN]
- ABSOLUTE BASOPHIL [1]: 0 CELLS/uL
- ABSOLUTE EOSINOPHIL [1]: 0 CELLS/uL
- ABSOLUTE LYMPHOCYTE [1]: 8158 CELLS/uL
- ABSOLUTE MONOCYTE [1]: 134 CELLS/uL
- ABSOLUTE SEGMENTED NEUTROPHIL [1]: 1208 CELLS/uL
- BASOPHIL [1]: 0%
- EOSINOPHIL [1]: 0%
- ERYTHROCYTE COUNT [1]: 6.46 x10E6/uL
- HEMATOCRIT [1]: 40.17%
- HEMOGLOBIN [1]: 15.27 G/DL
- LEUKOCYTE COUNT [1]: 9.5 x10E3/uL
- LYMPHOCYTE [1]: 86%
- MEAN CORPUSCULAR HEMOGLOBIN [1]: 23.63 pg
- MEAN CORPUSCULAR HEMOGLOBIN CONCENTRATION [1]: 38.03 G/DL
- MEAN CORPUSCULAR VOLUME [1]: 62.2 fL
- MONOCYTE [1]: 1.33%
- NEUTROPHIL [1]: 12.67%
- NUCLEATED RED BLOOD CELLS [1]: 0 /100WBC
- PLATELET COUNT [1]: 1425.67 x10E3/uL
- ALANINE AMINOTRANSFERASE [1]: 153 u/L
- ALBUMIN [1]: 4.83 G/DL
- ALKALINE PHOSPHATASE [1]: 635.67 u/L
- ASPARTATE AMINOTRANSFERASE [1]: 360.33 u/L
- BLOOD UREA NITROGEN [1]: 15.33 mg/dL
- CARBON DIOXIDE [1]: 35.67 mmol/L
- CHLORIDE [1]: 100.5 MEQ/L
- CHOLESTEROL [1]: 28.67 mg/dL
- CREATINE PHOSPHOKINASE [1]: 410.33 u/L
- CREATININE [1]: 0.31 mg/dL
- GLUCOSE [1]: 137.33 mg/dL
- LACTATE DEHYDROGENASE [1]: 182.33 u/L
- LIPASE [1]: 15.33 u/L
- PHOSPHORUS [1]: 8.7 mg/dL
- SODIUM [1]: 145.2 MEQ/L
- TOTAL BILIRUBIN [1]: 0.23 mg/dL
- TOTAL PROTEIN [1]: 6.1 G/DL
- URIC ACID [1]: 0.5 mg/dL
- ABSOLUTE BASOPHIL [2]: 0 CELLS/uL
- ABSOLUTE EOSINOPHIL [2]: 21.67 CELLS/uL
- ABSOLUTE LYMPHOCYTE [2]: 6143.33 CELLS/uL
- ABSOLUTE MONOCYTE [2]: 201 CELLS/uL
- ABSOLUTE SEGMENTED NEUTROPHIL [2]: 2134 CELLS/uL
- BASOPHIL [2]: 0%
- EOSINOPHIL [2]: 0.33%
- ERYTHROCYTE COUNT [2]: 5.62 x10E6/uL
- HEMATOCRIT [2]: 35.1%
- HEMOGLOBIN [2]: 13.97 G/DL
- LEUKOCYTE COUNT [2]: 8.5 x10E3/uL
- LYMPHOCYTE [2]: 72%
- MEAN CORPUSCULAR HEMOGLOBIN [2]: 24.9 pg
- MEAN CORPUSCULAR HEMOGLOBIN CONCENTRATION [2]: 39.83 G/DL
- MEAN CORPUSCULAR VOLUME [2]: 62.5 fL
- MONOCYTE [2]: 2.33%
- NEUTROPHIL [2]: 25.33%
- NUCLEATED RED BLOOD CELLS [2]: 0 /100WBC
- PLATELET COUNT [2]: 1031.67 x10E3/uL
- ALANINE AMINOTRANSFERASE [2]: 318 u/L
- ALBUMIN [2]: 4.3 G/DL
- ALKALINE PHOSPHATASE [2]: 538.67 u/L
- ASPARTATE AMINOTRANSFERASE [2]: 602.33 u/L
- BLOOD UREA NITROGEN [2]: 15.33 mg/dL
- CARBON DIOXIDE [2]: 30.33 mmol/L
- CHLORIDE [2]: 98 MEQ/L
- CHOLESTEROL [2]: 50 mg/dL
- CREATINE PHOSPHOKINASE [2]: 490 u/L
- CREATININE [2]: 0.37 mg/dL
- GLUCOSE [2]: 141.67 mg/dL
- LACTATE DEHYDROGENASE [2]: 851.33 u/L
- LIPASE [2]: 10.33 u/L
- PHOSPHORUS [2]: 10.3 mg/dL
- SODIUM [2]: 142.63 MEQ/L
- TOTAL BILIRUBIN [2]: 0.1 mg/dL
- TOTAL PROTEIN [2]: 5.53 G/DL
- URIC ACID [2]: 0.7 mg/dL
- ABSOLUTE BASOPHIL [3]: 0 CELLS/uL
- ABSOLUTE EOSINOPHIL [3]: 0 CELLS/uL
- ABSOLUTE LYMPHOCYTE [3]: 8899 CELLS/uL
- ABSOLUTE MONOCYTE [3]: 314.33 CELLS/uL
- ABSOLUTE SEGMENTED NEUTROPHIL [3]: 2320 CELLS/uL
- BASOPHIL [3]: 0%
- EOSINOPHIL [3]: 0%
- ERYTHROCYTE COUNT [3]: 6.78 x10E6/uL
- HEMATOCRIT [3]: 41.27%
- HEMOGLOBIN [3]: 15.53 G/DL
- LEUKOCYTE COUNT [3]: 11.53 x10E3/uL
- LYMPHOCYTE [3]: 76%
- MEAN CORPUSCULAR HEMOGLOBIN [3]: 22.93 pg
- MEAN CORPUSCULAR HEMOGLOBIN CONCENTRATION [3]: 37.63 G/DL
- MEAN CORPUSCULAR VOLUME [3]: 60.93 fL
- MONOCYTE [3]: 2.67%
- NEUTROPHIL [3]: 21.33%
- NUCLEATED RED BLOOD CELLS [3]: 0 /100WBC
- PLATELET COUNT [3]: 1526.33 x10E3/uL
- ALANINE AMINOTRANSFERASE [3]: 234.33 u/L
- ALBUMIN [3]: 4.7 G/DL
- ALKALINE PHOSPHATASE [3]: 440.67 u/L
- ASPARTATE AMINOTRANSFERASE [3]: 648.33 u/L
- BLOOD UREA NITROGEN [3]: 17 mg/dL
- CARBON DIOXIDE [3]: 35.67 mmol/L
- CHLORIDE [3]: 100.5 MEQ/L
- CHOLESTEROL [3]: 55.33 mg/dL
- CREATINE PHOSPHOKINASE [3]: 603 u/L
- CREATININE [3]: 0.34 mg/dL
- GLUCOSE [3]: 135 mg/dL
- LACTATE DEHYDROGENASE [3]: 832.33 u/L
- LIPASE [3]: 14.67 u/L
- PHOSPHORUS [3]: 8.5 mg/dL
- SODIUM [3]: 145.6 MEQ/L
- TOTAL BILIRUBIN [3]: 0.2 mg/dL
- TOTAL PROTEIN [3]: 6.33 G/DL
- URIC ACID [3]: 0.63 mg/dL
